Laboratory results published in article PMC2900413 (Biochemical pharmacology, 2010).
Entries after “also recorded” stand apart in the source; their conditions may differ.

What was measured:
A1 AR = target: T1, A1 AR (Homo sapiens, UniProt P30542); test: Radioligand membrane binding assay at the A1 AR with [3H]R-PIA
T1 sequence (P30542 1-326): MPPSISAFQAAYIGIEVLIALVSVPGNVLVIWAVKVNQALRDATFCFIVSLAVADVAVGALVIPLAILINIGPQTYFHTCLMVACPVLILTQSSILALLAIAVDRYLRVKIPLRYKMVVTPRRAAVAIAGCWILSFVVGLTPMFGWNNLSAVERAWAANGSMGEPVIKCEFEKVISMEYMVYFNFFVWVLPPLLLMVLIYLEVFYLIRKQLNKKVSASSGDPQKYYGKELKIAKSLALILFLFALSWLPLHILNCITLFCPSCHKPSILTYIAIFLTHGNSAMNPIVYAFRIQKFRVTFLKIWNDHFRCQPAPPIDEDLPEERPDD

A3 AR = target: T2, A3 AR (Homo sapiens, UniProt P0DMS8); test: Radioligand membrane binding assay at the A3 AR with [125I]AB-MECA
T2 sequence (P0DMS8 1-318): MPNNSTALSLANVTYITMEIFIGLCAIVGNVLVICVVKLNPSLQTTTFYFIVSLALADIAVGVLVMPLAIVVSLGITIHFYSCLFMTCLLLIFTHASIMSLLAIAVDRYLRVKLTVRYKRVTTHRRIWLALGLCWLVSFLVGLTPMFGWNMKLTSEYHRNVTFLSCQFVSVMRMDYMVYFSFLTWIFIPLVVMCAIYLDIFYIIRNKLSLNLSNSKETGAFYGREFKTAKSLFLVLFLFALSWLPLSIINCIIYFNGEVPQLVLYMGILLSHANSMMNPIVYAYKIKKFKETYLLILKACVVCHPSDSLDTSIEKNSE

A2B AR = target: T3, A2B AR (Homo sapiens, UniProt P29275); test: Cyclic AMP accumulation assay, CHO cells expressing the A2B AR; assay type: cell-based; settings: at 10 μM
T3 sequence (P29275 1-332): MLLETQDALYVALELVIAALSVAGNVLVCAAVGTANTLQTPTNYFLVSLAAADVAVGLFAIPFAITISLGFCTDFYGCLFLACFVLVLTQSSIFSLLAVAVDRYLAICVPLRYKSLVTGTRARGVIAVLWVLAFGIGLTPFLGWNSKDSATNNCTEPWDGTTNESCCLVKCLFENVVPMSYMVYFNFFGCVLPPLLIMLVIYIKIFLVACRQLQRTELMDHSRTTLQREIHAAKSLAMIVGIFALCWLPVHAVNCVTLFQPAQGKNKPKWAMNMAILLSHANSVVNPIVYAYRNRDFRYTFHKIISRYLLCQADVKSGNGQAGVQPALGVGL

A2AAR [1] = target: A2AAR (Homo sapiens, UniProt P29274); test: Cyclic AMP accumulation assay, CHO cells expressing the A2AAR; settings: CGS21680-induced cyclic AMP accumulation in CHO cells expressing the A2AAR
Chain of A2AAR (Homo sapiens, UniProt P29274) (P29274 whole entry): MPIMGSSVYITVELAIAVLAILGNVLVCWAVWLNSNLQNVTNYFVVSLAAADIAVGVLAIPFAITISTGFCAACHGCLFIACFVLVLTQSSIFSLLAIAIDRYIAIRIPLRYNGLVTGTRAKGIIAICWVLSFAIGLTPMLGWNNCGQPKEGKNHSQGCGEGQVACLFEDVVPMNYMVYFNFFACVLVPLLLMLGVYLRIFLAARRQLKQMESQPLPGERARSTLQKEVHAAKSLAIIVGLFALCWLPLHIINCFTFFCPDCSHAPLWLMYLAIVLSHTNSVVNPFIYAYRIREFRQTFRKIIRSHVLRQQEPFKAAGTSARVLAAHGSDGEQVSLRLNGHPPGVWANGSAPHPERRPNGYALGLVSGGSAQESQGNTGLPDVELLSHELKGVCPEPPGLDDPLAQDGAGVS

A2AAR [2] = settings: read-out: Ki, radioligand binding; reported values; ref [1], [27], [28], [29]; cited from earlier work

Row | SMILES | effect on A1 AR in binding (A1 AR; at 10 μM) | inhibition at 10 µM (A1 AR; read-out: inhibition of radioligand binding at A1 AR) [%] | effect on A3 AR in binding (A3 AR; at 10 μM) | inhibition at 10 µM (A3 AR; read-out: inhibition of radioligand binding at A3 AR) [%] | effect on NECA-induced cyclic AMP accumulation (A2B AR) | functional activity in cyclic AMP assay at the A2AAR (A2AAR [1]) | Ki (A2AAR [2]) [µM]
1 | N=c1ccc2c(-c3ccc(C(=O)NCCNC(=O)COc4ccc(CCCn5ncc6c5nc(N)n5nc(-c7ccco7)nc65)cc4)cc3C(=O)O)c3ccc(N)c(S(=O)(=O)O)c3oc-2c1S(=O)(=O)O [MRS5346, 5-((2-(2-(4-(3-(5-amino-2-(furan-2-yl)-7H-pyrazolo[4,3-e][1,2,4]triazolo[1,5-c]pyrimidin-7-yl)propyl)phenoxy)acetamido)-ethyl)-carbamoyl)-2-(6-amino-3-iminio-4,5-disulfonato-3H-xanthen-9-yl)benzoate] | did not show any effect | 4.6 ± 1.9 | did not show any effect | 3.8 ± 2.1 | did not show any effect; also recorded: did not inhibit | antagonist; also recorded: inhibited cyclic AMP accumulation | –
2 | OC[C@H]1O[C@@H](n2cnc3c(NC4CCCC4)ncnc32)[C@H](O)[C@@H]1O [CPA] | – | – | – | – | – | – | 0.794
